The species named for assay [1] is Homo sapiens. In words: Compound was tested for Leukotriene B4-mediated Up-regulation of human neutrophil CD11b/CD18. The format is functional.
Assay [2] in a line: LTB4 receptor antagonist activity was determined by inhibition of specific binding of [3H]LTB4 in guinea pig lung membranes.
Assay [3] addresses Leukotriene B4 receptor 1 (Homo sapiens, UniProt Q15722). In words: LTB4 receptor antagonist activity was determined by inhibition of specific binding of [3H]LTB4 in human neutrophil.

Molecules are shown by their SMILES.

Sequence of Leukotriene B4 receptor 1 (Q15722 whole entry): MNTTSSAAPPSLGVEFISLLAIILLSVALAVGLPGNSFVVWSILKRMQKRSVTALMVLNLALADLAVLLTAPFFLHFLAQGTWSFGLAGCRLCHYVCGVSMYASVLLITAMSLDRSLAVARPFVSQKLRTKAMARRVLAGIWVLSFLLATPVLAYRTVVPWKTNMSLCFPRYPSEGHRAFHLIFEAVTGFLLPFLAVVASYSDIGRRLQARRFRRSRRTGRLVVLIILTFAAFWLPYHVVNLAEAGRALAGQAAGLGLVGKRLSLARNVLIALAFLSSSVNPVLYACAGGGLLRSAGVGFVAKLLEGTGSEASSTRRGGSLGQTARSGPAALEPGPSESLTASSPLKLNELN

For the compound `CCc1cc(-c2ccc(F)cc2)c(O)cc1OCCCOc1cccc(Oc2ccc(C(=O)O)cc2)c1CCC(=O)O`, in assay [1], inhibition was half-maximal at 2.6 nM (IC50). This lies in the single-digit nanomolar range.

The compound `CCc1cc(-c2ccc(F)cc2)c(O)cc1OCCCOc1ccc2c(=O)c3cc(C(=O)O)ccc3oc2c1CCC(=O)O` yielded a Ki in assay [2] of 0.04 nM.

Consider `CCc1cc(-c2ccc(F)cc2)c(O)cc1OCCCOc1ccc(C#CCCC(=O)O)cc1CCC(=O)O`, for which, in assay [1], 4.7 nM corresponded to half-maximal inhibition (IC50). That is a single-digit nanomolar value.

For the compound `CCc1cc(-c2ccc(F)cc2)c(O)cc1OCCCOc1cc(Oc2ccc(C(=O)O)cc2)ccc1CCC(=O)O`, half-maximal inhibition in assay [1] (IC50) required 1800 nM. In assay [3], the affinity corresponds to a Ki of 39 nM.

A word on the IC50: it is the point on the concentration scale where inhibition reaches its midpoint. One may read the Ki as the equilibrium dissociation constant of an inhibitor or competing ligand from its target.

The values are drawn from ChEMBL document CHEMBL1150505 (Bioorg Med Chem Lett, 1994).
